US20160280788A1, “USE OF ANTIBODIES AGAINST ICAM-1 IN THE TREATMENT OF PATIENTS WITH RELAPSED CANCER” (BioInvent International AB, priority 2010, published 2016)

Key:
[1] = tested on: ICAM-1 on RPMI-8226 tumor cells; assay: ICAM-1 expression on MM cells isolated from treated mice (flow cytometry); assay type: in vivo, SCID mice; details: disseminated RPMI-8226 model, cells collected at termination
Method: Organs for FACS analysis were collected at scarification of mice, and cells from tissues were prepared by mechanistic dissociation and dispase/collagenase enzymatic digestion (Gibco, France). Cells were stained with anti-human CD38 antibody (PerCP-Cy5, Becton Dickinson), an anti-mouse CD45 (PE, Becton Dickinson) and human ICAM-1 (BI-505 IgG1 AF647, BioInvent) and incubated in the dark for 15 min at room temperature. After the incubation, cells were washed twice and the surface fluorescence of cells was analyzed with a flow cytometer apparatus (LSRII) at the Flow Cytometry Facility of the University of Burgundy.
The health status and behavior of mice was recorded every day and body weight of mice was recorded twice a week. […] Upon termination, bone marrow, spinal cord, adrenal glands and kidneys were collected and examined for ICAM-1 expression on tumor cells. To distinguish cells of human versus murine origin, an anti-mouse CD45 mAb was used CD45. […] In addition, cells were stained with AF647 conjugated anti ICAM-1 mAb and thereafter analyzed in a FACS LSRII. Bone marrow was mechanically dissociated to a single cell suspension whereas adrenal glands, kidneys and spinal cord cells were prepared using a combination of mechanistic dissociation and dispase/collagenase digestion (Gibco, France). Prior to the experiment, dispase and collagenase treatments were shown not to effect ICAM-1 levels on MM cell lines.

[2] = tested on: ARH-77 cells; assay: Disseminated scid/ARH-77 model of multiple myeloma; assay type: in vivo, scid mice; details: i.v. on Days 7, 10, 13, 16; antibody 2 mg/kg, bortezomib 0.5 mg/kg; vs control
Method: ARH-77 cells or RPMI-8226 were injected intraveniously into the SCID mice. (FIG. 6A) ARH-77 model. Animals received intravenous injections with antibody at 2 mg/kg or bortezomib (Velcade) at 0.5 mg/kg on Days 7, 10, 13, and 16 (as indicated by arrows in the graph). (FIG. 6B) RPMI-8226-model. BI-505 or control mAb was administered i.v at 2 mg/kg, twice weekly for 8 weeks, bortezomid, at 1 mg/kg, once weekly for 8 weeks, lenalidomide p.o with 2 mg/kg for 2 cycles consisting of 5 days of treatment and 2 days of wash out, melphalan i.v at 3 mg/kg, once weekly for 8 weeks, and dexamethasone (DXH) at 6 mg/kg/inj 3 times/week for 2 consecutive weeks. There were 6-10 mice per treatment group. Statistical significance was calculated using Log-rank Graphpad Prism software and determined at ***p<0.001. (FIG. 6C) To study the ICAM-1 level on human cells, the cells from different organs were stained and gated for CD38+/mCD45−/BI-505+. Left panel indicates the percentage of BI-505 positive cells in CD38+/mCD45 population and right panel the mean fluorescent intensity of the positive cells.
The anti-myeloma effect of BI-505 was examined in a disseminated model of multiple myeloma. The early and advanced disseminated model of multiple myeloma was performed at Oncodesign, Dijon, France. Briefly: 1×10^6 (early) or 5×10^6 (advanced) ARH-77 tumor cells in 200 μL of RPMI 1640 were injected intravenously (i.v) into the caudal vein of female scid mice (D0). Tumor cell injections were performed twenty four to forty eight hours after a whole body irradiation of mice (1.8 Gy, ^60Co, INRA, BRETENNIERES). The treatment was started at D5 (RPMI-8226 model) or D7 ([…] model) except alkeran which was administered at D10. B11 or control mAb was administered i.v. at 2 mg/kg, twice weekly for 8 weeks, bortezomib, at 1 mg/kg, once weekly for 8 weeks, lenalidomide p.o with 2 mg/kg for 2 cycles consisting of 5 days of treatment and 2 days of wash out, melphalan i.v. at 3 mg/kg, once weekly for 8 weeks and dexamethasone at 6 mg/kg, injected 2 consecutive weeks.
The disseminated model of scid/ARH-77 is a well-established experimental model that resembles human multiple myeloma disease progression and disease manifestation in many respects (33). We utilized this model to further characterize IgG B11 anti-myeloma activity (FIG. 6A). Intravenous injection of irradiated scid mice with 1×10^6 ARH-77 cells was previously shown to result in their dissemination and establishment in mouse bone-marrow, and resulting osteolytic bone-lesions and hypercalcemia, and ultimately, in animal paralysis or difficulty of breathing at which time animals were immediately sacrificed. […]

[3] = tested on: HUVEC and HMVEC endothelial cells; assay: PCD in normal endothelial cells; assay type: cell-based; details: resting or activated (IFN-γ) cells
Method: Target cells were seeded in 96-well culture plates at a density of 2×10^6 cells/mL culture medium. Titrated concentrations of IgG1 B11 or different negative and positive control antibodies were added to the cells, in the absence or presence of anti-human Fab fragment (Jackson ImmunoResearch) for cross-linking. The cells were then incubated for 16 hours at 37° C. in a humidified atmosphere of 5% CO2. The cells were harvested and stained for Annexin V-488/Propidium Iodide (Invitrogen, Sweden) and analysed using flow cytometer (FACS Calibur, BD Bioscience).

[4] = tested on: ICAM-1 expressing tumor cell lines; assay: Complement-dependent cytotoxicity in tumor cell lines; assay type: cell-based; details: panel of ICAM-1 expressing tumor cell lines; human serum
Method: Target cells were harvested and incubated in RPMI medium with antibodies at 5 μg/mL or at titrated concentrations between 0.01-100 μg/mL for 60 min on ice. Cells were thereafter washed and resuspended in cold medium before dispension into flow cytometry tubes. Treatments were performed in triplicates. Human serum, normal or heat-inactivated, (Sigma, Sweden) was added to tubes and the samples were incubated for 2 h at 37° C. After completed incubation ToPo-Pro-3 was added at a final concentration of 0.3 μM and cells were analyzed for membrane permeabilization using flow cytometry.

[5] = tested on: ARH-77 cells; assay: Subcutaneous scid/ARH-77 xenograft, prophylactic model; details: 20 mg/kg twice weekly i.p., commencing one day after tumor cell inoculation
Method: Tumor cells were injected subcutaneously into the left flank of SCID mice. Mice received twice-weekly intraperitoneal injections with BI-505, control antibody or rituximab at doses of 20, 2 and/or 0.2 mg/kg commencing one day after tumor cell inoculation. There were 8 to 10 animals per treatment group. […] Statistical significance was calculated relative to control antibody treatment using Kruskal-Wallis Test (Nonparametric ANOVA) with Dunn's Multiple Comparisons Test (tumor volume) or the log-rank test (mouse survival) using Graphpad Instat or Prism software, respectively. Statistical significance was considered for *p<0.05, **p<0.01, and ***p<0.001.
Tumor cells were injected subcutaneously into the left flank of SCID mice. Mice received twice-weekly intraperitoneal injections with BI-505 at doses of 0.02-20 mg/kg commencing day after tumor cell inoculation. There were 8-10 animals per treatment group. […] Statistical significance was calculated relative to control antibody treatment using Kruskal-Wallis Test (Nonparametric ANOVA) with Dunn's Multiple Comparisons Test (tumor volume) or the log-rank test (mouse survival) using Graphpad Instat or Prism software, respectively. Statistical significance was considered for *p<0.05, **p<0.01, and ***p<0.001. Graphs illustrate representative experiments out of several performed.
(FIG. 7A) ARH-77 cells were injected subcutaneously into the left flank of SCID mice (n=8 per group). Mice were treated with the different BI-505 isotypes twice weekly. […] Statistical significance was calculated relative to control antibody treatment using Kruskal-Wallis Test (Nonparametric ANOVA) with Dunn's Multiple Comparisons Test. Statistical significance was considered for *p<0.05, **p<0.01, and ***p<0.001.
Mice were anaesthetized with a mixture of sevofluran and oxygen prior to myeloma cell inoculation and 1-5×10^6 myeloma cells were then subcutaneously injected in a volume of 100 μl into the left flank.

[6] = tested on: ARH-77 tumors; assay: Subcutaneous scid/ARH-77 xenograft, established (palpable tumor) model; details: IgG B11 even at 0.2 mg/kg (100-fold lower dose than rituximab)
Method: Mice were anaesthetized with a mixture of sevofluran and oxygen prior to myeloma cell inoculation and 1-5×10^6 myeloma cells were then subcutaneously injected in a volume of 100 μl into the left flank. Treatment with antibodies by intraperitonial (i.p.) injections was started either the day after cell inoculation (prophylactic model) or when tumors reached a size of approximately 100 mm^3 (established model). Antibodies were administrated in PBS in a total volume of 200 μL. Treatment with PBS or isotype control was used as control. Tumors were measured with a digital calliper and the tumor volumes were calculated according to formula: width^2×length×0.52. Animals were sacrificed when the tumor sizes reached the ethical limit of 1.5 cm. Surviving mice were sacrificed after a maximum of 5 months. Blood samples collected from the vena cava were centrifuged at 2500 g for 15 min to obtain serum and the samples were stored at −20° C. Tumors were removed for immunohistochemistry, snap frozen and were kept at −85° C.

[7] = Mouse serum antibody levels by ELISA at end of xenograft experiment; assay type: in vivo; details: dose 2 mg/kg; mouse serum at end of experimentation
Method: We next performed a dose-titration experiment to establish IgG B11 in vivo potency and the minimal dose achieving maximal anti-tumor activity, using the scid/ARH-77 model system. […] Mouse serum antibody trough concentrations were determined by ELISA at the end of experimentation. Trough antibody concentrations were then plotted against percent of maximal in vivo anti-tumour activity, and against percent of maximal ICAM-1 receptor occupancy and tumour cell PCD at corresponding antibody concentrations in vitro (FIGS. 3C, 3D, 3E, 3F and 3G). Strikingly, a near perfect correlation between antibody concentration and in vitro tumour cell receptor occupancy, in vitro tumor cell PCD, and in vivo anti-tumour activity was observed, consistent with ICAM-1 dependent direct cell cytotoxicity underlying in vivo anti-tumour activity.

[8] = biological target: T1, mouse FcγRIV (Mus musculus, UniProt A0A0B4J1G0); assay: Biacore binding of BI-505 isotype variants to mouse FcγRIV
T1 construct: made in house; host or cells: HEK293E (transient)
T1 sequence (A0A0B4J1G0 21-249): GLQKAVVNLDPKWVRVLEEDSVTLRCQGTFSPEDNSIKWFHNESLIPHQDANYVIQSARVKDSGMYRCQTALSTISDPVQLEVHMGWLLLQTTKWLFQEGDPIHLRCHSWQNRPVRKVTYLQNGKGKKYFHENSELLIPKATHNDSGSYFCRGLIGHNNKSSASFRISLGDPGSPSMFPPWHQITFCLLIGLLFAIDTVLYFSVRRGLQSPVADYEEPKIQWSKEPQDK
Method: (§1) His-tagged human FcγRIIIa or mouse FcγRIV were expressed transient in adherent HEK293E cells, purified using Ni-NTA chromatography and characterized using SDS-PAGE and/or Biacore. Surface plasmon resonance (SPR) measurements were perfomed using a Biacore 3000 instrument. Goat α-human-F(ab)′2 F(ab)′2 fragment (Jackson laboratories) was immobilised with a CM-5 chip using a standard amine coupling protocol. IgG1 B11, Iga4 B11, or 297Q B11 were diluted to 15 and 60 μg/mL respectively and added to the surface at […] for 3 min. His tagged human FcγRIIIa or mouse FcγRIV were pre-incubated with an α-HIS antibody (R&D Systems) at a 2:1 molar ratio before addition to the chip surface, […], 1 min. After each cycle the surface was regenerated twice with glycine buffer pH 1.7.

[9] = biological target: T2, human FcγRIIIa (Homo sapiens, UniProt P08637); assay: Biacore binding of BI-505 isotype variants to human FcγRIIIa
T2 construct: made in house; host or cells: HEK293E (transient)
T2 sequence (P08637 17-254): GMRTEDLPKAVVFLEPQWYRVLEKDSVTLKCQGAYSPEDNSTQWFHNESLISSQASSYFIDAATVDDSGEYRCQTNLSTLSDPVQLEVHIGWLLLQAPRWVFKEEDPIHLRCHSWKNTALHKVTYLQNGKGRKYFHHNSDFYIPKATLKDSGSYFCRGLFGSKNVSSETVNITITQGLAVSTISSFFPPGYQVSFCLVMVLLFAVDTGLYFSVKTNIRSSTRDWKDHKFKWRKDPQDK
Method: as §1

[10] = tested on: B lymphoma cell line (CL-01); assay: ADCC of tumor cells with human NK effector cells; assay type: cell-based; details: human Natural Killer effector cells
Description: Buffy coats from human donors (ordered through Blodcentralen, Lund) were used to isolate peripheral blood mononuclear cells (PBMCs), and subsequently NK cells. Briefly, peripheral blood components were separated using Ficoll Paque PLUS (Amersham Biosciences, Sweden) in LeucoSep tubes (Greiner Bio-One). The PBMC fraction was removed and thoroughly washed in ice-cold DPBS (Invitrogen), before magnetic labeling and separation of the NK cell population using positive or negative NK cell isolation kits and MACS LS columns (Miltenyi Biotec). The purity of the obtained NK cell fractions was analyzed using flow cytometry, after staining with α-CD56 antibodies (BD Biosciences). Target cells were harvested, and incubated in medium with or without the respective antibodies (2 μg/mL) for 60 min on ice. Cells were thereafter washed and resuspended in cold medium before dispension into FACS tubes. Subsequently, isolated NK cells were diluted in ADCC medium and dispensed together with the respective antibody-coated target cells at varying effector/target cell ratios (40:1, 20:1, 5:1 and 1:1). All experiments were performed in triplicates. After completed incubation ToPo-Pro-3 dye and counting beads (Invitrogen) were added and cells were analyzed for membrane permeabilization using flow cytometry.

## N[C@@H](Cc1ccc(N(CCCl)CCCl)cc1)C(=O)O [AIKERAN, Melphalan]
[1]
  ICAM-1 expression on tumor cells collected from treated mice: unchanged, high levels

## Nc1cccc2c1CN(C1CCC(=O)NC1=O)C2=O (stereo not drawn) [Revlimid, Lenalidomide]
[1]
  ICAM-1 expression on tumor cells collected from treated mice: unchanged, high levels

## CC(C)C[C@H](NC(=O)[C@H](Cc1ccccc1)NC(=O)c1cnccn1)B(O)O [bortezomib, reference compound]
[2]
  animal survival: did not significantly enhance animal survival
  time to symptomatic disease onset: insignificantly delayed disease onset
[1]
  ICAM-1 expression on tumor cells collected from treated mice: unchanged, high levels

## CC(=O)O[C@H]1C(=O)[C@@]2(C)[C@H]([C@H](OC(=O)c3ccccc3)[C@]3(O)C[C@H](OC(=O)[C@H](O)[C@@H](NC(=O)c4ccccc4)c4ccccc4)C(C)=C1C3(C)C)[C@]1(OC(C)=O)CO[C@@H]1C[C@@H]2O [paclitaxel, reference compound]
[3]
  PCD induction in normal endothelial cells: induced significant endothelial cell

## rituximab [reference compound]
[4]
  induction of CDC: effectively induced CDC
[5]
  tumor growth: significant anti-tumor activity albeit less efficaciously
[6]
  animal survival: incapable of reducing tumor growth or promoting animal survival
  tumor growth: incapable of reducing tumor growth

B1: IgG4: human IgG4 isotype switch variant of B11 (antibody, V domains shown)
VH: EVQLLESGGGLVQPGGSLRLSCAASGFTFSNAWMSWVRQAPGKGLEWVAFIWYDGSNKYYADSVKGRFTISRDNSKNTLYLQMNSLRAEDTAVYYCARYSGWYFDYWGQGTLVTVSS
VL: QSVLTQPPSASGTPGQRVTISCTGSSSNIGAGYDVHWYQQLPGTAPKLLIYDNNNRPSGVPDRFSGSKSGTSASLAISGLRSEDEADYYCQSYDSSLSAWLFGGGTKLTVLG
[7]
  In vivo IgG Levels (serum antibody titers): 13 ± 3.1 µg/mL
[8]
  binding to murine FcγRIV: but not IgG4 or N297Q-mutant, showed strong binding
[9]
  binding to human FcγRIIIa: did not bind to human FcγRIIIa
[10]
  ADCC of target tumor cells: did not mediate ADCC

B2: N297Q-mutant: FcγR-binding deficient mutant IgG1 isotype switch variant of B11 (antibody, V domains shown)
VH: EVQLLESGGGLVQPGGSLRLSCAASGFTFSNAWMSWVRQAPGKGLEWVAFIWYDGSNKYYADSVKGRFTISRDNSKNTLYLQMNSLRAEDTAVYYCARYSGWYFDYWGQGTLVTVSS
VL: QSVLTQPPSASGTPGQRVTISCTGSSSNIGAGYDVHWYQQLPGTAPKLLIYDNNNRPSGVPDRFSGSKSGTSASLAISGLRSEDEADYYCQSYDSSLSAWLFGGGTKLTVLG
[7]
  In vivo IgG Levels (serum antibody titers): 9.6 ± 3. μg/mL
[8]
  binding to murine FcγRIV: but not IgG4 or N297Q-mutant, showed strong binding
[9]
  binding to human FcγRIIIa: did not bind to human FcγRIIIa
[10]
  ADCC of target tumor cells: did not mediate ADCC
